US7214686B2, “Pharmaceutical compositions and methods for effecting dopamine release” (priority 1997, dated 2007)
Like-named read-outs stand apart in the source and are kept apart here.

Assays:
[1] = system: striatal synaptosomes (dopamine release); assay: cells; assay type: cell-based, rat; conditions: for EC50: read-out: Dopamine Release EC50
[2] = target: T1, human muscle nAChR subtype (TE671/RD cells) (Homo sapiens, UniProt P02708+P07510+Q07001); assay: cell-based; assay type: cell-based; conditions: for Muscle Effect Ecmax: maximal activation as a percentage of that induced by L-nicotine
T1 construct: These cells express receptors that have pharmacological; endogenous in cells; host or cells: TE671/RD (human embryonal rhabdomyosarcoma)
T1 sequence (P02708 21-457): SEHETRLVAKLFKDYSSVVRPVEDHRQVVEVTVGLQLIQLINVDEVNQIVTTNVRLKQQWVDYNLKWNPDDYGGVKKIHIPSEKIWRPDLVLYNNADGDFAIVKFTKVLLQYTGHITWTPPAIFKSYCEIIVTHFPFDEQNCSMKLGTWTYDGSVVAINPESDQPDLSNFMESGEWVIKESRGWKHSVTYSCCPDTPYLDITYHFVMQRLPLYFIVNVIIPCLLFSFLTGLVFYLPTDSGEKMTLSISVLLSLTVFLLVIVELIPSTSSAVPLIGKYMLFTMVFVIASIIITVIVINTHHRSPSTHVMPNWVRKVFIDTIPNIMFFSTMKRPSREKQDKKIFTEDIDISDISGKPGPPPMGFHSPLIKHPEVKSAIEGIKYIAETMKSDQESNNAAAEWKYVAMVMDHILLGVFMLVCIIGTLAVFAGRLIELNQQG
T1 sequence (P11230 24-501 partner): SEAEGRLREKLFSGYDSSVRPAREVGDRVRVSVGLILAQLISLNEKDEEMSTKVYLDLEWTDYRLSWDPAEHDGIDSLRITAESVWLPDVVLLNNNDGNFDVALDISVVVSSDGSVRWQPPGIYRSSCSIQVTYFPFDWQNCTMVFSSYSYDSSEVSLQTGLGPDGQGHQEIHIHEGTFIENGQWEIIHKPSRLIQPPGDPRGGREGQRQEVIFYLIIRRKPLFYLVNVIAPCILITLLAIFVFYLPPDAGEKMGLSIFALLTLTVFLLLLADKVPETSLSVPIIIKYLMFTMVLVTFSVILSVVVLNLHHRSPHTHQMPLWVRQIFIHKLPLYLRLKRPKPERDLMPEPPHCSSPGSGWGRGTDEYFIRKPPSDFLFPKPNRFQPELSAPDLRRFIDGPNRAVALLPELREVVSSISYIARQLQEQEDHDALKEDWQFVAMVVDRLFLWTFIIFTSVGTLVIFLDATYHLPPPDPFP
T1 sequence (Q07001 22-517): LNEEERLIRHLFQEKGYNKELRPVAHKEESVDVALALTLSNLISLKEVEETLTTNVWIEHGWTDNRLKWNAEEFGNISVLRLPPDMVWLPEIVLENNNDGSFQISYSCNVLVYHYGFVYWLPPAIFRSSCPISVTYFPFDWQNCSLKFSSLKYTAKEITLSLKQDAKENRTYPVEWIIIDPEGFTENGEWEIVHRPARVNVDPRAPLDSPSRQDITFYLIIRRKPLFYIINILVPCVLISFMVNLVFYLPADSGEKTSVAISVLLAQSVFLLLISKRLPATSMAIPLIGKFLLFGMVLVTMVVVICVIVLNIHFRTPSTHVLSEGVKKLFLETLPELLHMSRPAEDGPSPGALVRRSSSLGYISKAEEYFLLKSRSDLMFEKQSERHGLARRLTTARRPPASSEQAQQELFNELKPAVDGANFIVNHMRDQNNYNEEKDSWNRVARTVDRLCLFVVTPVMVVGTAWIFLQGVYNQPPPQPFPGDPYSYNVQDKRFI
T1 sequence (P07510 23-517): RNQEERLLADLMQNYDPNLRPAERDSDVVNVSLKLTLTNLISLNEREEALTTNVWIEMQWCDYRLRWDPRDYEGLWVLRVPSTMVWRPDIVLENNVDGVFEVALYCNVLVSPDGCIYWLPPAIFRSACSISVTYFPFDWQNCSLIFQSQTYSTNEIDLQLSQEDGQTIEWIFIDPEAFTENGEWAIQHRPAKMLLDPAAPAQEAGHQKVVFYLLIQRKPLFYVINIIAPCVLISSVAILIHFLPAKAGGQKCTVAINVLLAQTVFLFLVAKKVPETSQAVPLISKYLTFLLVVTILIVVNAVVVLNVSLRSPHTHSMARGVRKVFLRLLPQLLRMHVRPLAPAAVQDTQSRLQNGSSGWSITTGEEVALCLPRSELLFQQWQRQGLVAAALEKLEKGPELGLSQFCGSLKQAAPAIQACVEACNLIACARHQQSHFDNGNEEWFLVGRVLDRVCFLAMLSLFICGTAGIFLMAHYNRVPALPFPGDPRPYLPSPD
Experimental: (§1) Cells were cultured in Dulbecco's modified Eagle's medium (Gibco/BRL) with 10% horse serum (Gibco/BRL), 5% fetal bovine serum (HyClone, Logan Utah), 1 mM sodium pyruvate, 4 mM L-Glutamine, and 50,000 units penicillin-streptomycin (Irvine Scientific). When cells were 80% confluent, they were plated to 6 well polystyrene plates (Costar). Experiments were conducted when the cells reached 100% confluency.
(§2) On the day of the experiment, growth media was gently removed from the well and growth media containing ^86Rubidium chloride (10^6 μCi/mL) was added to each well. Cells were incubated at 37° C. for a minimum of 3 h. […] Next, cells were exposed to either 100 μM of test compound, 100 μM of L-nicotine (Acros Organics) or buffer alone for 4 min. Following the exposure period, the supernatant containing the released ^86Rb^+ was removed and transferred to scintillation vials. Scintillation fluid was added and released radioactivity was measured by liquid scintillation counting.
Within each assay, each point had 2 replicates, which were averaged. The amount of ^86Rb^+ release was compared to both a positive control (100 μM L-nicotine) and a negative control (buffer alone) to determine the percent release relative to that of L-nicotine.
(§3) When appropriate, dose-response curves of test compound were determined. The maximal activation for individual compounds (Emax) was determined as a percentage of the maximal activation induced by L-nicotine. The compound concentration resulting in half maximal activation (EC50) of specific ion flux was also determined.

[3] = target: T2, rat ganglionic nAChR subtype (PC12 cells) (Rattus norvegicus, UniProt P04757+P12392); assay: cell-based; assay type: cell-based
T2 construct: These cells express ganglion-like nAChRs; endogenous in cells; host or cells: PC12 (rat pheochromocytoma)
T2 sequence (P04757 26-499): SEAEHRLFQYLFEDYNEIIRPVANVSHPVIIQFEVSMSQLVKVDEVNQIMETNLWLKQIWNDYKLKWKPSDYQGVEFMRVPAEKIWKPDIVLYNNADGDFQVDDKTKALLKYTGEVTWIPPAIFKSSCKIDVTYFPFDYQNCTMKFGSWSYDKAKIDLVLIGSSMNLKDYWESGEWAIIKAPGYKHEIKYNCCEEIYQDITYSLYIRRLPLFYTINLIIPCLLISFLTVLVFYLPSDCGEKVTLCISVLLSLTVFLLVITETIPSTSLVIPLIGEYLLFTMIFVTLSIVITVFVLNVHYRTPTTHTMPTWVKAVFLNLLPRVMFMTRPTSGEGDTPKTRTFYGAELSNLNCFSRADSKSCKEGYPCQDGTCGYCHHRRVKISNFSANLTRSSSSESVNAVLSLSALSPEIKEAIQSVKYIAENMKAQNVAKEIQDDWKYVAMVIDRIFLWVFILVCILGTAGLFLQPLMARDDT
T2 sequence (P12392 21-495): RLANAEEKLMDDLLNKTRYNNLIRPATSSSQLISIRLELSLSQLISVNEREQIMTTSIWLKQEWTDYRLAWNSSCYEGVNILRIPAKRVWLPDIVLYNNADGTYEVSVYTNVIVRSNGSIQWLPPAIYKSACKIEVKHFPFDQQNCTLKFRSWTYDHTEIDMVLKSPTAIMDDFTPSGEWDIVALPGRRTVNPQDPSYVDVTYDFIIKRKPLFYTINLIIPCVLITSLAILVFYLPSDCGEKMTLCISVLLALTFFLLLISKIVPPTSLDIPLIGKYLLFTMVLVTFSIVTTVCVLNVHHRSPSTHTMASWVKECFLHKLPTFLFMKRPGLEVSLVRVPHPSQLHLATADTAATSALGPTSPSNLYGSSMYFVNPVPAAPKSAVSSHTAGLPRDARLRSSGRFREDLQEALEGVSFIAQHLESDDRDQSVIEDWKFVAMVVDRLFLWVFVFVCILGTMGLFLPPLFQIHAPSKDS
Experimental: Activation of rat ganglion nAChRs was established on the pheochromocytoma clonal line PC12, which is a continuous clonal cell line of neural crest origin, derived from a tumor of the rat adrenal medulla.
as §1, with “Nunc” for “polystyrene”, “(Nunclon) and coated with 0.03% poly-L-lysine (Sigma, dissolved in 100 mM boric acid).” for “(Costar).”, “80%” for “100%”
as §2, with “nicotine” for “L-nicotine (Acros Organics)”
Within each assay, each point had 2 replicates, which were averaged. The amount of ^86Rb^+ release was compared to both a positive control (100 μM nicotine) and a negative control (buffer alone) to determine the percent release relative to that of L-nicotine.
as §3

α4β2 nAChR subtype = target: T3, α4β2 nAChR subtype (Rattus norvegicus, UniProt P09483+P12390); assay: biochemical; conditions: inhibition of [3H]nicotine binding, rat cerebral cortex membranes
T3 construct: The cerebral cortex was removed and placed in 20 volumes (weight:volume) of ice-old preparative buffer; from tissue; host or cells: rat cerebral cortex membranes
T3 sequence (P09483 31-630): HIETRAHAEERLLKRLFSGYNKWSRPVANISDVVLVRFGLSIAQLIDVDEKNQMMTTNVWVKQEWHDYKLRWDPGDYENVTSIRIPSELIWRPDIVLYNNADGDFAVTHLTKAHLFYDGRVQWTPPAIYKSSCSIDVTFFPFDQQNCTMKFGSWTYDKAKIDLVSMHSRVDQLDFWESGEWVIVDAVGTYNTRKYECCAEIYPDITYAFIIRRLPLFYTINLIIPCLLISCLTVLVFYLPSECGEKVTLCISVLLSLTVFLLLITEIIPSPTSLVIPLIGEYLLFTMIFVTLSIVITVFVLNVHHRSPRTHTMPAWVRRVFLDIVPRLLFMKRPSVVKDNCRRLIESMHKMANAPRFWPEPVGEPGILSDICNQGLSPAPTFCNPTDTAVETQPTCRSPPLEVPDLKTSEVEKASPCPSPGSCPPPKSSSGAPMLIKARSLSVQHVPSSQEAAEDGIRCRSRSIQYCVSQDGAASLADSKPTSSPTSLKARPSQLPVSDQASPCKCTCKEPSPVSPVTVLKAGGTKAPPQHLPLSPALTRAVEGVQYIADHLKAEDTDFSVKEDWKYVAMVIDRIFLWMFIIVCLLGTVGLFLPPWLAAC
T3 sequence (P12390 25-500): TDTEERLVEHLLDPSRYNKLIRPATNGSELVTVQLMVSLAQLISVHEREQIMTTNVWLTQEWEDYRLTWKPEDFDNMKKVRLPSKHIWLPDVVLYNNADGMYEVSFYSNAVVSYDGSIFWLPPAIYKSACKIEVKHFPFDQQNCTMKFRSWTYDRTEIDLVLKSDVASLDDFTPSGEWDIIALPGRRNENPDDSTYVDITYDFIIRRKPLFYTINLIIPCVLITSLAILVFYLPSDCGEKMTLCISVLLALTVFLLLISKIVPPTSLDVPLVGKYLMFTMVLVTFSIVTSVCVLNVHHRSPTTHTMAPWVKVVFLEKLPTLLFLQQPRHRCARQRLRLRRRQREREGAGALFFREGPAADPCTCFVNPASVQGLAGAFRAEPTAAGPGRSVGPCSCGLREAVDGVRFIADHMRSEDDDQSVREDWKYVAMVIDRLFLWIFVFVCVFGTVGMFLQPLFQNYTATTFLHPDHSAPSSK

[4] = maximal activation as a percentage of that induced by L-nicotine
[5] = rat striatal synaptosomes, [3H]dopamine release
[6] = 86Rb+ efflux, read-out: Ganglion Effect EC50

| Structure (SMILES) | Dopamine Release Ecmax [1, 4] | EC50 [1, 5] [nM] | EC50 ([2]; 86Rb+ efflux, TE671/RD cells, read-out: Muscle Effect EC50) [nM] | Muscle Effect Ecmax [2] | EC50 [3, 6] [nM] | Ganglion Effect Ecmax [3, 4] | logP (physchem) | EC50 ([1]; Rattus norvegicus) [nM] | EC50 [2] [nM] | EC50 [3] [nM] | Ki (α4β2 nAChR subtype) [nM] | amounts causing muscle effects relative to those required to cause dopamine release ([2]; muscle effects vs dopamine release) | amounts causing effects upon ganglia relative to those required to cause dopamine release ([3]; ganglia effects vs dopamine release) | Dopamine Release Ecmax [1] | Ganglion Effect Ecmax [3] |
| --- | --- | --- | --- | --- | --- | --- | --- | --- | --- | --- | --- | --- | --- | --- | --- |
| c1cncc(C2CC3CCN2CC3)c1 (racemic) [Sample No. 1, (+/−)-2-(3-pyridyl)-1-azabicyclo[2.2.2]octane] | 40 | 2 | 59 | 110 | 1100 | 85 | 1.26 |  |  |  |  |  |  |  |  |
| Brc1cncc(C2CC3CCN2CC3)c1 (racemic) [Sample No. 2, (+/−)-2-(5-bromo-3-pyridyl)-1-azabicyclo[2.2.2]octane] | 43 |  |  | 133 |  | 106 | 2.05 | 2 | 3000 | 3000 |  |  |  |  |  |
| c1cncc([C@@H]2C[C@@H]3CCN2C3)c1 (relative stereo) [Sample No. 4, endo-2-(3-pyridyl)-1-azabicyclo[2.2.1]heptane] | 114 |  |  | 130 |  | 100 | 0.94 | 33 |  | 150 |  |  |  |  |  |
| Cl.Cl.Cl.Nc1cncc(C2CC3CCN2CC3)c1 (stereo not drawn) [Sample No. 6, 2-(5-amino-3-pyridyl)-1-azabicyclo[2.2.2]octane trihydrochloride] | 43 | 7 |  | 100 | 10000 | 75 | 0.48 |  |  |  | 2.6 | many times | many times |  |  |
| CCOc1cncc(C2CC3CCN2CC3)c1.Cl.Cl (stereo not drawn) [Sample No. 7, 2-(5-ethoxy-3-pyridyl)-1-azabicyclo[2.2.2]octane dihydrochloride] | 40 |  |  | 137 |  | 86 | 1.82 | 5 |  | 10000 |  |  |  |  |  |
| c1cncc([C@H]2C[C@@H]3CCN2C3)c1 (relative stereo) [Sample No. 3, exo 2-(3-pyridyl)-1-azabicyclo[2.2.1]heptane] | 130 |  |  | 130 |  | 100 | 0.94 | 6 |  | 150 |  |  |  |  |  |
| c1cncc(C2C3CCN2CC3)c1 (stereo not drawn) [Sample No. 5, 7-(3-pyridyl)-1-azabicyclo[2.2.1]heptane] | 93 |  |  | 130 |  | 120 | 0.93 | 4 |  |  | 7 |  |  |  |  |
| CC(C)Oc1cncc(C2CC3CCN2CC3)c1.Cl.Cl (stereo not drawn) [Sample No. 8, 2-(5-isopropoxy-3-pyridyl)-1-azabicyclo[2.2.2]octane dihydrochloride] |  |  |  |  |  | 94 | 1.76 |  |  |  |  |  |  |  |  |
| CN1CCC[C@H]1c1cccnc1 [C-1, (S)-(−)-nicotine, reference compound] |  |  |  |  |  |  |  |  |  |  |  |  |  | 100 | 100 |
